# “Also recorded” adds a separate entry of the source. No end group written: not given here. *: point of attachment. Palmitoyl = CCCCCCCCCCCCCCCC(=O)*
# What was measured:
# [1] = system: human epidermal keratinocytes (HEKa); assay: In vitro cell adhesion of keratinocytes to peptide-coated microwells (calcein fluorescence); assay type: cell-based; settings: for cell adhesion of keratinocytes: HEKa, peptide-coated microwells 0.5-250 μg/ml, 4 concentrations, 2 hours
# Protocol: 1-Y and the comparative evaluation between them.
# The cell cultures used in the following example are human epidermal keratinocytes (HEKa) in the presence of specific growth factors of keratinocytes.
# First, 96 microwells are placed in a plate, they are coated with 50 μL of a peptide of general formula X-SEQ ID NO.1-Y (0.5-250 μg/ml per microwell) in distilled water and dried overnight at room temperature.
# On the other hand, control assays are carried out with microwells coated with 40 μM of BSA (bovine serum albumin) so as to evaluate non-specific cell adhesion.
# All the microwells have been washed with 200 μL of PBS (phosphate buffered saline) and blocked for 1 hour with 1% BSA in PBS at 37° C.
# Trypsin was added to human cutaneous keratinocytes, and they were marked for 30 minutes at 37° C. in calcein-AM at a concentration of 5 μM and they were finally washed three times in Epilife® medium.
# The marked cells (4.5×10^4/microwell) were added to the plate previously coated with the X-SEQ ID No. 1-Y peptide and were incubated for 2 hours at 37° C. in an atmosphere humidified with 5% CO2.
# The cell adhesion was assessed by the measurement of calcein fluorescence before and after the washing.
# The percentage of cell adhesion was determined by dividing the fluorescence of adhered cells by the total fluorescence of cells added to each microwell.
# The cell adhesion promoted by the X-SEQ ID No. 1-Y peptides was calculated with respect to the non-specific adhesion of the cells to BSA.
# α6 integrin = assay: Immunostaining of α6 integrin expression in human fibroblasts and keratinocytes; assay type: cell-based
# From the text: (§1) Immunostaining assays have been carried out in human fibroblasts and keratinocytes in order to determine if SEQ ID No. 2 has the ability to enhance the expression of α6 integrin and laminin V (FIGS. 2, 3, 4, and 5).
# (§2) The assay uses a primary (monoclonal) antibody binding to the protein which is intended to be detected (integrin or laminin), and a secondary (polyclonal) antibody binding to the complex between the protein and the primary antibody. The secondary antibody is coupled to a fluorescent compound (FITC-Fluorescein Isothiocyanate).
# (§3) FITC is illuminated with filtered light at 495 nm (absorption wavelength) and the light emitted by the dye is detected at 528 nm (emission wavelength).
# laminin V = assay: Immunostaining of laminin V expression in human fibroblasts and keratinocytes; assay type: cell-based; settings: human fibroblasts, immunofluorescence, vs control without peptide
# From the text: as §1, §2, §3
# beta 1 integrin = assay: Immunostaining, production of beta 1 integrin; assay type: cell-based, human
# human fibroblasts = assay: Cell adhesion in in vitro fibroblast culture; assay type: cell-based; settings: vs untreated
# From the text: The adhesion process at a cellular level has been determined by means of a in vitro fibroblast culture in the second embodiment assay.
# FIGS. 6 and 7 show a uniform coating of the assay microwell and the growth and distribution of the fibroblasts that are more related with cell adhesion than with cell proliferation.
substance,measurement,setting,value
Pal-SEQ ID No. 1: X-SEQ ID No. 1-Y peptide where X is the palmitoyl radical (Palmitoyl-IKVAV; listed as Homo sapiens),cell adhesion of keratinocytes,[1],Stimulation of keratinocyte adhesion
same,cell adhesion of keratinocytes,[1]; listed as Pal-SEQ ID NO.1,increase of cell adhesion
SEQ ID No. 1: peptide of general formula I in which X is hydrogen and Y is hydroxyl (H-IKVAV-OH; listed as Homo sapiens),cell adhesion of keratinocytes,[1],Stimulation of keratinocyte adhesion
same,cell adhesion of keratinocytes,[1]; listed as SEQ ID NO. 1,increase of cell adhesion
SEQ ID No. 2-amino: variant of SEQ ID No. 2 with Y amino (SEQ ID NO. 2-NH2) (SIKVAV-NH2; listed as Homo sapiens),cell adhesion of keratinocytes,[1],increase of cell adhesion
same,"keratinocyte cell adhesion, SEQ ID No. 2 vs SEQ ID No. 2-amino (FIG. 10)",[1]; small doses (0.5 μg/ml),greater
SEQ ID No. 2: peptide of general formula I in which X is serine and Y is hydroxyl; laminin-derived (SIKVAV-OH; listed as Homo sapiens),expression of α6 integrin,"α6 integrin; human fibroblasts, immunofluorescence, vs control without peptide",increase of the expression; also recorded: significant increase
same,expression of α6 integrin,"α6 integrin; human fibroblasts, immunofluorescence, vs control without peptide, listed as SEQ ID NO.2",stimulation of the expression
same,expression of α6 integrin,"α6 integrin; keratinocytes, immunostaining",not in keratinocytes
same,expression of laminin V,laminin V,increase of the expression; also recorded: significant increase
same,expression of laminin V,laminin V; listed as SEQ ID NO.2,stimulation of the expression
same,production of beta 1 integrin,beta 1 integrin,No variation
same,cell adhesion in human fibroblasts,human fibroblasts,promoting cell adhesion and migration
same,cell adhesion of keratinocytes,[1],Stimulation of keratinocyte adhesion
same,cell adhesion of keratinocytes,[1]; listed as SEQ ID NO. 2,increase of cell adhesion
same,cell adhesion of keratinocytes,[1]; listed as SEQ ID NO.2,increase of cell adhesion
same,"keratinocyte cell adhesion, comparison between peptides (FIG. 9)","[1]; extrapolated results of FIG. 9, SEQ ID No. 2 vs SEQ ID No. 1 vs Pal-SEQ ID No. 1",greater adhesion
same,"keratinocyte cell adhesion, SEQ ID No. 2 vs SEQ ID No. 2-amino (FIG. 10)",[1]; larger doses,greater adhesion

# — patent US7943156B2, “Use of peptides of general formula I X-SEQ ID No.1-Y in the preparation of cosmetic compositions which are intended to improve the firmness of the skin by increasing cell adhesion” (Lipotec, S.A., priority 2004, dated 2011)
